US8906928B2, “Substituted pyrazolo-pyrrolo-pyridine-dione compounds” (ArQule, Inc., priority 2009, dated 2014)

Legend:
Type in all cases: cell-based
DLD-1 = test: MTS assay (cell growth inhibition), DLD-1; settings: DLD-1 cells, 72 hours incubation with test compound; concentration not given
Summary of the method: (§1)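 First, seed 3000 cells per well in low-serum (1% FBS) DMEM and culture 18 h. Next, add compounds prepared at 300× in DMSO and diluted 1:40 in DMEM; incubate 72 h. Finally, add MTS/PMS for 4 h and measure absorbance at 492 nm.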

Kato III = test: MTS assay (cell growth inhibition), Kato III; settings: Kato III cells, 72 hours incubation with test compound; concentration not given
Summary of the method: as §1

MDA-MB = test: MTS assay (cell growth inhibition), MDA-MB; settings: MDA-MB cells, 72 hours incubation with test compound; concentration not given
Summary of the method: as §1

NCI-H1299 = test: MTS assay (cell growth inhibition), NCI-H1299; settings: NCI-H1299 cells, 72 hours incubation with test compound; concentration not given
Summary of the method: as §1

PACA-2 = test: MTS assay (cell growth inhibition), PACA-2; settings: PACA-2 cells, 72 hours incubation with test compound; concentration not given
Summary of the method: as §1

PC-3 = test: MTS assay (cell growth inhibition), PC-3; settings: PC-3 cells, 72 hours incubation with test compound; concentration not given
Summary of the method: as §1

SMILES	MTS CELL KILL DATA (% INHIBITION) DLD-1 (DLD-1)	MTS CELL KILL DATA (% INHIBITION) Kato III (Kato III)	MTS CELL KILL DATA (% INHIBITION) MDA-MB (MDA-MB)	MTS CELL KILL DATA (% INHIBITION) NCI-H1299 (NCI-H1299)	MTS CELL KILL DATA (% INHIBITION) PACA-2 (PACA-2)	MTS CELL KILL DATA (% INHIBITION) PC-3 (PC-3)
Cc1ccc(OCCN2C(=O)c3cnc4[nH]ncc4c3C2=O)cc1 [Example 125, 7-[2-(4-methylphenoxy)ethyl]pyrazolo[3,4-b]pyrrolo[3,4-d]pyridine-6,8(3H,7H)-dione]	C (C = <50% INHIBITION)	C (C = <50% INHIBITION)	A (A = 80-100% INHIBITION)	C (C = <50% INHIBITION)	A (A = 80-100% INHIBITION)	A (A = 80-100% INHIBITION)
Cc1cccc(OCCN2C(=O)c3cnc4[nH]ncc4c3C2=O)c1 [Example 13, 7-[2-(3-methylphenoxy)ethyl]pyrazolo[3,4-b]pyrrolo[3,4-d]pyridine-6,8(3H,7H)-dione]	C (C = <50% INHIBITION)	A (A = 80-100% INHIBITION)	A (A = 80-100% INHIBITION)	B (B = 50-79% INHIBITION)	C (C = <50% INHIBITION)	A (A = 80-100% INHIBITION)
Cc1ccc(CCN2C(=O)c3cnc4[nH]ncc4c3C2=O)cc1 [Example 69, 7-[2-(4-methylphenyl)ethyl]pyrazolo[3,4-b]pyrrolo[3,4-d]pyridine-6,8(3H,7H)-dione]	C (C = <50% INHIBITION)	C (C = <50% INHIBITION)	C (C = <50% INHIBITION)	C (C = <50% INHIBITION)	C (C = <50% INHIBITION)	C (C = <50% INHIBITION)
CC(C)(C)c1ccc(CN2C(=O)c3cnc4[nH]ncc4c3C2=O)cc1 [Example 47, 7-(4-tert-butylbenzyl)pyrazolo[3,4-b]pyrrolo[3,4-d]pyridine-6,8(3H,7H)-dione,]	C (C = <50% INHIBITION)	C (C = <50% INHIBITION)	C (C = <50% INHIBITION)	C (C = <50% INHIBITION)	C (C = <50% INHIBITION)	C (C = <50% INHIBITION)
CC(CCN1C(=O)c2cnc3[nH]ncc3c2C1=O)c1ccccc1 (stereo not drawn) [Example 53, 7-(3-phenylbutyl)pyrazolo[3,4-b]pyrrolo[3,4-d]pyridine-6,8(3H,7H)-dione]	C (C = <50% INHIBITION)	C (C = <50% INHIBITION)	A (A = 80-100% INHIBITION)	C (C = <50% INHIBITION)	A (A = 80-100% INHIBITION)	A (A = 80-100% INHIBITION)
Cc1cccc(CCN2C(=O)c3cnc4[nH]ncc4c3C2=O)c1 [Example 86, 7-[2-(3-methylphenyl)ethyl]pyrazolo[3,4-b]pyrrolo[3,4-d]pyridine-6,8(3H,7H)-dione]	C (C = <50% INHIBITION)	A (A = 80-100% INHIBITION)	A (A = 80-100% INHIBITION)	C (C = <50% INHIBITION)	C (C = <50% INHIBITION)	A (A = 80-100% INHIBITION)
COc1cccc(CN2C(=O)c3cnc4[nH]ncc4c3C2=O)c1OC [Example 92, 7-(2,3-dimethoxybenzyl)pyrazolo[3,4-b]pyrrolo[3,4-d]pyridine-6,8(3H,7H)-dione]	C (C = <50% INHIBITION)	C (C = <50% INHIBITION)	C (C = <50% INHIBITION)	C (C = <50% INHIBITION)	C (C = <50% INHIBITION)	C (C = <50% INHIBITION)
